Experimental findings from PubChem BioAssay AID720589 (Broad Institute, 2013) are described below.

The source made the active and inactive calls.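 Rule for the calls: active = fitted curve drops below -35% activity at a concentration within twice the top valid tested dose; inconclusive = no clear call, values can overlap the other calls; inactive = signal rising instead of falling, among other cases.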

System in one experiment: not listed separately
Nature of the experiment: HepG2 hepatoma cell cytotoxicity, dose response, cytotoxicity control, CellTiter-Glo luminescence, cherry-pick, set 3 (AID 720589). The note with it: HepG2 viability, ATP luminescence (CellTiter-Glo), 72 h; at 0.011 µM; active compounds read low; 0% = untreated, negative = ATP loss. Background: ATP-based viability assays read luminescence as a measure of living cells.
For the compound `N#C[C@@H]1[C@H](c2ccc(C#Cc3ccc(F)cc3)cc2)[C@@H](CO)N1C(=O)Nc1ccc(F)cc1`, the max activity is -24.6% (inactive). On the same count and under the same terms, the figure for `CCS(=O)(=O)N1Cc2ccccc2CC1C(=O)Nc1nnc(SCc2ccc(C#N)cc2)s1` (configuration not stated) is 21.9% (inactive); for `Cc1ccsc1C(=O)OCC(=O)NCCC1=CCCCC1` it is -13% (inactive).

As to `COc1cc(/C=N/NS(=O)(=O)c2ccc3ccccc3c2)ccc1OCc1ccc(C(=O)O)cc1`, the max activity was 33.7% (inactive). Same read-out and setting: the figure for `O=C1CCCC2=C1C(c1ccccn1)Nc1ccc(C(=O)c3ccccc3)cc1N2` (configuration not stated) is 38.6% (inactive); for `CCN1CCN(/C=N/c2nc3c(s2)CCCC3)CC1` it is -25.3% (inactive); for `Cc1c(-c2nc(-c3ccc(C(C)(C)C)cc3)no2)n(C)oc1=O` it is -27.3% (inactive). Turning to `Cc1csc(NC(=O)CCc2c(C)nc3cc(-c4ccc(Cl)cc4)nn3c2C)n1`, the max activity is 11.5% (inactive).

On to `COc1ccc2oc(C(=O)NCCc3ccccc3)c(C)c2c1`, for which the max activity is -16.8% (inactive).

The experiment is the same for the next values; noted with them: HepG2 viability, ATP luminescence (CellTiter-Glo), 72 h; at 0.012 µM; active compounds read low; 0% = untreated, negative = ATP loss.
Consider `N#C[C@@H]1[C@H](c2ccc(C#Cc3cccc(F)c3)cc2)[C@@H](CO)N1C(=O)C1CCCC1`, for which the max activity is 24% (inactive).

Staying with this experiment, now noted: HepG2 viability, ATP luminescence (CellTiter-Glo), 72 h; at 0.035 µM; active compounds read low.
In the case of `O=C1NC2C(=CC(O)C(O)C2O)c2cc3c(cc21)OCO3` (configuration not stated), the max activity is -17.9% (inactive).

Staying with this experiment, now noted: HepG2 viability, ATP luminescence (CellTiter-Glo), 72 h; at 0.035 µM; active compounds read low; 0% = untreated, negative = ATP loss.
For `CC1(C)Oc2cc3oc(-c4cc(O)cc(O)c4)cc3cc2CC1O` (configuration not stated), the max activity was -28.3% (inactive). The same measure, in the same setting: the figure for `CC(=O)c1ccc(N=Nc2ccc(C)cc2)cc1` is -7.42% (inactive).

The experiment is the same for the next values; noted with them: HepG2 viability, ATP luminescence (CellTiter-Glo), 72 h; at 0.1 µM; active compounds read low; 0% = untreated, negative = ATP loss.
As for `CC(=O)c1ccc(N=C2C(=O)Nc3ccccc32)cc1`, the max activity is -37.4% (inactive). On to `COC(=O)C[C@@H]1CC[C@@H]2[C@H](COc3ccc(NC(=O)Nc4cccc(C#N)c4)cc3C(=O)N2C)O1`, for which the max activity is 28.5% (inactive).

`O=C1Nc2ccccc2C1=Nc1ccccc1-c1ccccc1`: the max activity is 10.3% (inactive).

As to `Cc1c(Cc2ccc3c(c2)OCO3)sc(NC(=O)C(C)(C)C)c1C#N`, the max activity was -26.7% (inactive).

Regarding `Cc1cc(Br)ccc1N=C1C(=O)Nc2ccccc21`, the max activity was -28.8% (inactive).

The same experiment, now with this note: HepG2 viability, ATP luminescence (CellTiter-Glo), 72 h; at 0.3 µM; active compounds read low; 0% = untreated, negative = ATP loss.
Regarding `C[C@H](CO)N1C[C@H](C)[C@@H](CN(C)Cc2ccc(C(F)(F)F)cc2)OCCCC[C@H](C)Oc2ccc(NS(=O)(=O)c3ccc(F)cc3)cc2C1=O`, the max activity was 27.5% (inactive).

For `CN(C)c1ccc(N=Nc2ccc(C(=O)O)cc2)cc1`, the max activity was -28.7% (inactive). In the case of `C[C@@H]1CCCCO[C@@H](CN(C)C(=O)Cc2ccccc2)[C@@H](C)CN([C@@H](C)CO)C(=O)c2cc(NS(=O)(=O)c3ccc(F)cc3)ccc2O1`, the max activity was -23.7% (inactive). Same read-out and setting: the figure for `COCc1cc(C)nc2sc(C(=O)NCCO)c(-n3cccc3)c12` is 7.49% (inactive). Consider `COc1ccc2nc(-c3ccc(F)cc3)sc2c1`, for which the max activity is -47.1% (inactive).

Staying with this experiment, now noted: HepG2 viability, ATP luminescence (CellTiter-Glo), 72 h; at 0.9 µM; active compounds read low.
For the compound `COC(=O)[C@H]1[C@H](CO)[C@H]2Cn3c(ccc(-c4ccccc4F)c3=O)[C@@H]1N2CC1CCCC1`, the max activity was -23.4% (inactive).

Staying with this experiment, now noted: HepG2 viability, ATP luminescence (CellTiter-Glo), 72 h; at 0.9 µM; active compounds read low; 0% = untreated, negative = ATP loss.
As for `COC(=O)C[C@@H]1CC[C@@H]2[C@H](COc3ccc(NC(=O)Nc4ccc(C#N)cc4)cc3C(=O)N2C)O1`, the max activity is -48.5% (inactive). Same read-out and setting: the figure for `Cc1c(Cl)cccc1NC(=O)CCC(=O)N/N=C/c1ccc[nH]1` is 21.7% (inactive); for `O=c1oc2cc(O)ccc2s1` it is -35.6% (inactive).

The experiment is the same for the next values; noted with them: HepG2 viability, ATP luminescence (CellTiter-Glo), 72 h; at 1 µM; active compounds read low; 0% = untreated, negative = ATP loss.
With `C[C@H]1CN([C@@H](C)CO)C(=O)Cc2cc(NC(=O)CCCCCC(=O)Nc3ccccc3N)ccc2O[C@H]1CN(C)Cc1ccc(C(F)(F)F)cc1`, the max activity is -22.7% (inactive).

Staying with this experiment, now noted: HepG2 viability, ATP luminescence (CellTiter-Glo), 72 h; at 2.85 µM; active compounds read low; 0% = untreated, negative = ATP loss.
Regarding `C[C@H](CO)N1C[C@H](C)[C@H](CN(C)Cc2ccc(C(=O)Nc3ccccc3N)cc2)Oc2ccc(NS(=O)(=O)c3cccs3)cc2C1=O`, the max activity was -29.1% (inactive). Same read-out and setting: the figure for `N#C[C@@H]1[C@H](c2ccc(C#Cc3ccccc3F)cc2)[C@@H](CO)N1C(=O)c1cccnc1` is -22% (inactive). As to `C(=Cc1c[nH]c2ccccc12)c1ccc2ccccc2n1`, the max activity was -21.4% (inactive).

`O=C(C[C@@H]1C[C@H]2c3cc(NC(=O)CC4CC4)ccc3O[C@H]2[C@H](CO)O1)NCc1ccccc1F`: the max activity is -31.6% (inactive). Regarding `O=C(O)c1cccc(N/N=C/c2ccc(OC(F)(F)F)cc2)c1`, the max activity is -28.9% (inactive).

Staying with this experiment, now noted: HepG2 viability, ATP luminescence (CellTiter-Glo), 72 h; at 8 µM; active compounds read low; 0% = untreated, negative = ATP loss.
On to `COc1ccc(N=C(NN)c2ccc3ccccc3n2)cc1`, for which the max activity is -15.2% (inactive). Turning to `COc1ccc(OC)c(/C=C/c2ccnc3ccccc23)c1`, the max activity is -41.5% (inactive).

In the case of `O=C(C[C@@H]1C[C@H]2c3cc(NS(=O)(=O)c4ccc(F)cc4)ccc3O[C@H]2[C@H](CO)O1)NCc1ccc(-c2ccccc2)cc1`, the max activity is -26.1% (inactive). Same read-out and setting: the figure for `COC(=O)c1cccc(NC(=O)NC(=O)c2ccc(Cl)cc2)c1` is -15.3% (inactive). Regarding `COc1ccccc1CNC(=O)C[C@@H]1CC[C@H]2[C@@H](COC[C@H](O)CN2C(=O)Nc2ccc(C(F)(F)F)cc2)O1`, the max activity is -30.7% (inactive).

Take `CC(=O)c1ccc(N(C(=O)Cn2nnc3ccccc32)C(C(=O)NCc2ccccc2)c2ccccn2)cc1` (configuration not stated): the max activity was -38% (inactive).

Still in this experiment, the particulars now being: HepG2 viability, ATP luminescence (CellTiter-Glo), 72 h; at 23.5 µM; active compounds read low; 0% = untreated, negative = ATP loss.
Turning to `N#C[C@H]1N[C@H](CO)[C@H]1c1ccc(C#Cc2ccccc2F)cc1`, the max activity was -26.9% (inactive).

Still in this experiment, the particulars now being: HepG2 viability, ATP luminescence (CellTiter-Glo), 72 h; at 26 µM; active compounds read low; 0% = untreated, negative = ATP loss.
Regarding `COc1ccc(C(C)(O)c2nc(-c3cccc(F)c3)cs2)cc1` (configuration not stated), the max activity is -21.6% (inactive). Same read-out and setting: the figure for `COC(=O)COc1ccc(-c2nccc(-c3ccccn3)n2)cc1` is 18.7% (inactive); for `COc1ccc(C(=O)CN2C(=O)c3ccccc3S2(=O)=O)cc1` it is 10.2% (inactive); for `Cc1ccccc1S(=O)(=O)N1CC[C@@H]2[C@@H](CO)Nc3ccc(-c4ccc(C#N)cc4)cc3[C@@H]21` it is -21.8% (inactive). Same read-out and setting: the figure for `C(=N\Nc1ccc2ccccc2n1)/c1ccc2c(c1)OCCO2` is -26.2% (inactive); for `O=c1[nH]c(=O)n(C2C[C@H](O)[C@@H](CO)O2)cc1C(F)(F)F` (some centres not stated) it is -30.8% (inactive); for `O=C(O)c1ccc(N/N=C/c2ccc3nccnc3c2)cc1` it is -27.1% (inactive).

Consider `N#CC1=C(N)Oc2cc(N)ccc2C1c1cccc(Br)c1` (configuration not stated), for which the max activity was -27% (inactive). On the same count and under the same terms, the figure for `COc1ccc(CNc2ncc(-c3ccc(F)cc3)n2C)c2ccccc12` is -23.1% (inactive). Still for that read-out and setting: the figure for `O=C(CN1C(=O)c2ccccc2S1(=O)=O)c1ccc(F)cc1` is 20.9% (inactive); for `CC(C)(C)c1ccc(Cn2c(=O)cnc3ccccc32)cc1` it is -40.9% (inactive); for `COc1ccc(CCC(C)NCC2CCCCC2)cc1` (configuration not stated) it is -15.7% (inactive).

For the compound `C[C@@H]1CN([C@H](C)CO)C(=O)CCCn2nncc2CO[C@H]1CN(C)Cc1ccc(Oc2ccccc2)cc1`, the max activity was -33.6% (inactive). Regarding `CC(=O)ON=C1C=CC(=C(C#N)c2ccccc2)C=C1`, the max activity was -27.6% (inactive).

The next experiment deals with HepG2 viability, ATP luminescence (CellTiter-Glo), 72 h. The description is as above.
Conditions: not given
Consider `C=CCOC(=O)c1sc(NC(=O)c2ccc(OC)cc2)nc1C`, for which the AC35 is 6.33 µM. Same read-out and setting: the figure for `C[C@@H]1CN([C@@H](C)CO)C(=O)c2cccc(NC(=O)CCCCCC(=O)Nc3ccccc3N)c2O[C@@H]1CN(C)Cc1ccc(Oc2ccccc2)cc1` is 0.458 µM; for `CCOc1ccc2nc(NC3=NC(c4ccc(OC)cc4)CC(=O)N3)nc(C)c2c1` (configuration not stated) it is 10.2 µM; for `Cc1ccc(S(=O)(=O)Nc2ccc3c(c2)C(=O)N([C@@H](C)CO)C[C@@H](C)[C@H](CN(C)Cc2ccc(C(F)(F)F)cc2)OCCCC[C@H](C)O3)cc1` it is 13.3 µM. Still for that read-out and setting: the figure for `O=c1ccc2ccccc2c2ccccc12` is 15.5 µM. Same read-out and setting: the figure for `C[C@H]1CN([C@@H](C)CO)C(=O)c2cc(NS(=O)(=O)c3ccc(Cl)cc3)ccc2O[C@H]1CN(C)Cc1ccc(C(=O)Nc2ccccc2N)cc1` is 7.39 µM. For the compound `COc1cc2c(OC(C)=O)c3c(c(-c4ccc5c(c4)OCO5)c2cc1OC)C(=O)OC3`, the AC35 was 0.465 µM.

`COC(=O)C[C@@H]1CC[C@H]2[C@H](COc3ccc(NC(=O)Nc4ccc(C#N)cc4)cc3C(=O)N2C)O1`: the AC35 is 4.2 µM. Regarding `CNC[C@H](CC1CCCCC1)NC[C@H](CO)NCCc1cccc(C(F)(F)F)c1`, the AC35 is 7.57 µM. Still for that read-out and setting: the figure for `CCOC(=O)[C@]12Cc3ccc(C)cc3[C@H]1N(C1CCCCC1)C(=O)c1ccccc12` is 3.95 µM; for `C[C@@H]1CN([C@@H](C)CO)C(=O)c2cccc(NS(=O)(=O)c3ccc(Cl)cc3)c2O[C@@H]1CN(C)Cc1ccc(C(=O)Nc2ccccc2N)cc1` it is 2.38 µM. Take `C[C@@H]1CCCCO[C@H](CN(C)Cc2ccc(C(F)(F)F)cc2)[C@H](C)CN([C@H](C)CO)C(=O)c2cc(NC(=O)CCCN(C)C)ccc2O1`: the AC35 was 9.15 µM. For the compound `C=C1C(=O)C=C[C@]2(C)C[C@@H]3OC(=O)[C@](C)(O)[C@H]3C[C@@H]12`, the AC35 is 11.8 µM.
